{"source": "paper PMC5691054", "about": "“An unexpected protein interaction promotes drug resistance in leukemia” (Nature Communications, 2017)", "key": {"[1]": {"system": "ABCC4 plasma membrane localization in HEK293 cells expressing MPP1 and GFP-ABCC4", "assay": "ABCC4 plasma membrane localization (confocal microscopy)", "type": "cell-based, Human", "conditions": "in words; confocal microscopy", "description": "Peptides containing or lacking the ABCC4-PDZ motif were fused with the cell penetrating HIV-TAT peptide. These peptides were tested for their effect on ABCC4 plasma membrane localization. HEK293 cells were transfected with MPP1 and GFP-ABCC4 and the ER protein, calreticulin. The plasma membrane was counter-stained with wheat-germ-agglutinin (WGA) labeled with Alexa647 after treatment with either ABCC4-PDZ or ABCC4ΔC peptide.\nHEK293 cells were seeded on chambered coverglass slides (LAB-TEK) 48 h before transfection with plasmid DNA (250 ng) encoding pAc-GFP-ABCC4 or ABCC4ΔC and pCal plasmid encoding the ER resident protein calreticulin conjugated to RFP (Origene). Transfection was performed using Lipofectamine 2000 as per the manufacturer’s instructions. Immediately prior to visualizing cells, cells were counterstained with the plasma membrane marker wheat-germ agglutinin (WGA) conjugated to Alexa-647 (Invitrogen). All confocal microscopy images were acquired on a 3i Marianas system configured with an Yokagowa CSU-X spinning disk confocal microscope utilizing a ×63 Zeiss objective, using the 488 (GFP), 561 (RFP), and 660 (far red) laser lines."}, "[2]": {"assay": "Antimycin A cytotoxicity in MO7e and ABCC4 KO MO7e cells", "type": "cell-based, Human", "conditions": "human, 0.01 to 1000 μM, CellTiter Glo, triplicate", "description": "(§1) The Meg01, MO7e, and ABCC4 KO MO7e cell lines were plated at 1500 cells per well in a 96-well plate. Cells were treated with 10 concentrations of Antimycin A (Santa Cruz) ranging from 0.01 to 1000 μM. Cell viability was determined using CellTiter Glo (Promega). […] Cell viability analysis was determined using CellTiter Glo. IC50 values were calculated using GraphPad Prism."}, "[3]": {"system": "MO7e cells", "assay": "Antimycin A cytotoxicity in MO7e and ABCC4 KO MO7e cells", "type": "cell-based, Human", "conditions": "MO7e; 6MP 10 μM (sublethal), in words", "description": "as §1"}, "[4]": {"system": "primary AML cells from adult patients", "assay": "Annexin V/PI apoptosis in primary AML patient samples", "type": "cell-based, Human", "conditions": "50 or 100 µM cytarabine + 10 nM Antimycin A 4 h, then 44 h ± Antimycin A; triplicates; in words", "description": "Primary AML cells from adult patients were treated with either vehicle, 50 or 100 µM cytarabine, 10 nM Antimycin A, or the combination of 50 or 100 µM cytarabine + 10 nM Antimycin A for 4 h. Post treatment, the cells were washed with fresh media (2×) and resuspended in the absence or presence of 10 nM Antimycin A and cultured for an additional 44 h (for a total treatment time of 48 h). The cells were then stained with Annexin V-fluorescein isothiocyanate (FITC)/propidium iodide (PI) apoptosis Kit (Beckman Coulter; Brea, CA, USA). The stage of apoptotic cells (Annexin V-positive, but early or late apoptosis) is identified by the proportion of AnnexinV+/PI− (early apoptosis) and Annexin V+/PI+ (late apoptosis) cells. This experiment was performed once in triplicates (presented as average ± SEM) due to the limited sample availability. Patient samples were selected based on the availability of an adequate number of cells to perform the assay."}, "[5]": {"system": "ABCC4 at the plasma membrane", "assay": "Surface biotinylation of ABCC4", "type": "cell-based", "conditions": "Antimycin A, Fig. 6f, in words", "description": "MO7e, Meg01, or transfected HEK293 cells were treated with trypsin, washed in PBS (pH 8) and incubated with 0.8 mM EZ-Link Sulfo-NHS-SS-Biotin (Pierce) solution for 30 min at room temperature with gentle agitation. Following incubation, the biotin molecules were quenched with 25 mM tris (pH 8) solution containing 0.1 M glycine before cell lysis using MPER (Thermo Scientific) containing a protease inhibitor cocktail (Roche). A volume of 20 µl of the lysate was removed for the total lysate control and the remaining lysate was incubated with avidin-agarose beads (Pierce) for 18 h on a rotatory shaker at 4 °C. The agarose beads attached to cell surface proteins were then separated from the lysate containing cytosolic proteins by centrifugation and the three samples (input, supernatant and pellet) were analyzed by immunoblotting."}, "[6]": {"system": "mitochondrial complex III", "set-up": "method as in PMID 6257713", "conditions": "in words; cited from earlier work", "protocol": "Among the 11,297 chemicals tested, 219 of them (144 unique molecules) had >30% inhibition and were selected for further dose-response analysis using 10 concentrations ranging from 3.5 nM to 70 μM."}}, "note": "Entries after “also recorded” stand apart in the source; their conditions may differ.", "data": [{"smiles": "CCCCCC[C@H]1C(=O)O[C@H](C)[C@H](NC(=O)c2cccc(NC=O)c2O)C(=O)O[C@@H](C)[C@@H]1OC(=O)CC(C)C", "note": "[Antimycin A]", "values": [{"measurement": "effect on ABCC4 plasma membrane localization", "setting": "[1]", "result": "ABCC4 relocalized from the plasma membrane to the cytosol; also recorded: causes ABCC4 to relocalize from the plasma membrane"}, {"measurement": "IC50", "setting": "[2]; MO7e ABCC4 KO cells, MO7e ABCC4 KO", "result": 1700, "unit": "nM"}, {"measurement": "IC50", "setting": "[2]; MO7e cells, MO7e", "result": 2200, "unit": "nM"}, {"measurement": "Antimycin A cytotoxicity in combination with non-cytotoxic 6MP", "setting": "[3]", "result": "sensitizes MO7e cells to Antimycin A; also recorded: shifted the Antimycin A survival curve to the left indicating greater toxicity when an ABCC4 substrate was present"}, {"measurement": "Antimycin A enhancement of cytarabine-induced apoptosis in primary AML samples", "setting": "[4]", "result": "Three of the 5 patients; also recorded: enhanced cytarabine cytoxicity in three primary AML patient samples; also recorded: did not show enhancement on cytarabine-induced apoptosis; also recorded: increased Annexin V^+ percentage of cells with combination treatment of Antimycin A and cytarabine vs cytarabine alone"}, {"measurement": "surface / plasma membrane ABCC4", "setting": "[5]", "result": "reduces ABCC4 at the plasma membrane"}, {"measurement": "mitochondrial complex III inhibition", "setting": "[6]", "result": "mitochondrial complex III inhibitor at micromolar concentration"}]}]}
